How the values were obtained:
[1] = system: AML12 cells (mouse hepatocyte cell lines); assay: Fibrosis markers by Western blotting after TGF-β induction, TGF-β receptor inhibitor; assay type: cell-based; details: 2 ng/ml TGF-β, 10 μM EW-7197, 24 hours, FIG. 2
Protocol: Cell experiments were performed by using AML12, […], and LX-2 cells, a human hepatic stellate cell.
AML12 cells were cultured in a culture medium made by adding 5 ml of insulin (ITS), 40 ng/ml of dexamethasone, 1% penicillin streptomycin (anti-anti), and 10% fetal bovine serum (FBS) to F-12 media (Corning Incorporated, USA, Arizona), a mixture of a DMEM medium and Ham's F-12 at a ratio of 50:50, which is used for culturing hepatocytes or prostate epithelial cells.
Fibrosis was induced in hepatocytes with TGF-β, a TGF-β receptor inhibitor was administered, and fibrosis was checked.
Specifically, 2 ng/ml of TGF-β was administered to the cells of Example 1-1, and administered or not administered with 10 μM EW-7197 (EW), and cultured for 24 hours. The control group (Con) was not treated with either TGF-β or the sample. […] A protein concentration was measured by BCA assay (Pierce Biotechnology Inc). […] Then, the membranes were washed, briefly incubated with Pico Enhanced Peroxidase Detection (EPD) Western reagent (ELPISBIOTECH. INC.) according to the manufacturer's procedure, and quantified by using an image analyzer (ImageQuant™ LAS 500, GE Healthcare Bio-Sciences AB, Uppsala, Sweden). β-actin was used as an internal control. Densitometry of protein intensity was quantified by using ImageJ (National Institutes of Health). […]

[2] = system: C57BL/6 mice in which steatohepatitis was induced with a methionine-choline deficient diet; assay: Steatohepatitis animal model (MCD), curcumin 5-8 and low-concentration EW-7197 (5 mg/kg); assay type: in vivo, mouse; details: MCD-fed C57BL/6 mice, 6 weeks; EW-7197 5 mg/kg oral; curcumin 5-8 1 g per 1 kg diet
Protocol: 8-week-old male C57BL/6 mice weighing 20 to 25 g were purchased from Dae Han Bio Link Co., Ltd. (Chungbuk). […] Mice were fed with a normal diet (Research Diets, RD) and allowed to drink water freely. […] In order to confirm the physiological changes in case of co-administration of a curcumin derivative (Cur5-8) and a TGF-β receptor inhibitor (EW-7197), the liver weights and the concentrations of TG, TC, AST, ALT, and γ-GT in serum were measured. In addition, hydroxyprolin expression was checked as a fibrosis marker in the liver tissues. Specifically, the weights of the liver tissues harvested in Examples 2-1 and 2-2 were measured before storage. […] In order to measure blood glucose, triglyceride, cholesterol, and AST and ALT concentrations, ELISA kit of Asan Pharm. Co., Ltd. was purchased, and the measuring was performed. γ-GT in the liver was measured by using Mak089 of Sigma-Aldrich, and hydroxyproline was measured by using STA-675 ELISA kit of Cell Biolabs, Inc. In addition, the hydroxyprolin expression was checked in the liver tissues harvested in Examples 2-1 and 2-2. In order to check effects of inhibiting fat accumulation in liver tissues and fibrosis in liver tissues in case of co-administration of a curcumin derivative (Cur5-8) and a TGF-β receptor inhibitor (EW-7197), the liver tissues were stained. The liver tissues harvested in Examples 2-1 and 2-2 were fixed with 10% formaldehyde, the formaldehyde was washed out with running water for more than 12 hours, and then washing was performed with 60% ethanol at a one-hour interval, with 70% ethanol at a one-hour interval, and with 100% ethanol at a one-hour interval. Then, the transparency process in xylene was performed three times for one hour each, and the infiltration process in paraffin was performed twice for one hour each. Then, the paraffin block was cut to a thickness of about […] to obtain slices. […] In addition, H&E-stained liver slices were evaluated by using the NAFLD activity score (NAS) system. […]

renal fibrosis model = details: unilateral ureteral obstruction (UUO); previous studies; cited from earlier work

## Cc1cccc(-c2[nH]c(CNc3ccccc3F)nc2-c2ccc3ncnn3c2)n1 [EW-7197, N-(2-fluorophenyl)-5-(6-methyl-2-pyridinyl)-4-[1,2,4]triazolo[1,5-a]pyridin-6-yl-1H-imidazole-2-methanamine]
[1]
  protein expressions of α-SMA, Coll, p-SMAD2, and p-SMAD3 increased by TGF-β: inhibited
[2]
  ALT: 96.1 ± 17.96 IU/L
  AST: 159.6 ± 26.73 IU/L
  TG: 28.3 ± 4.84 mg/dL
Renal fibrosis model
  tissue fibrosis (renal): suppressing tissue fibrosis
